# Earlier results in patent US7160560B2, “Skin-care composition” (L'Oreal S.A., priority 2003, dated 2007).
compound,measurement,setting,value
"CC1=N[C@H](C(=O)O)CCN1 [ectoin, (s)-1,4,5,6-tetrahydro-2-methyl-4-pyrimidinecarboxylic acid]",signaling cascade brought about by UVA-radiation,human keratinocytes,inhibits
same,UVA radiation-induced formation of mitochondrial DNA mutations,human dermal fibroblasts,inhibits
